Active and inactive are the calls of the source. No cut-off for these calls is given here.
Assays:
MCF7 = test: Cytotoxicity against human MCF7 cells assessed as reduction in cell viability; type: functional, cell-based
Candida albicans = test: Antifungal activity against fluconazole resistant Candida albicans kzs01 assessed as inhibition of growth at 100 uM after 24 hrs; type: functional, organism-based
[1] = Cytotoxicity against human multidrug-resistant A549/Taxol cells assessed as reduction in cell viability; type: functional, cell-based
HL-60 = test: Cytotoxicity against human HL-60 cells assessed as reduction in cell viability; type: functional, cell-based
RAW264.7 = test: Inhibition of LPS-induced NO production in mouse RAW264.7 cells incubated for 18 hrs by Griess reagent based assay; type: functional, cell-based; conditions: RAW264.7, 18 h
Staphylococcus aureus = test: Antibacterial activity against Staphylococcus aureus assessed as inhibition of growth at 100 uM after 24 hrs; type: functional, organism-based
SMMC-7721 = test: Cytotoxicity against human SMMC-7721 cells assessed as reduction in cell viability; type: functional, cell-based
SW480 = test: Cytotoxicity against human SW480 cells assessed as reduction in cell viability; type: functional, cell-based
A549 = test: Cytotoxicity against human A549 cells assessed as reduction in cell viability; type: functional, cell-based

SMILES | IC50 (MCF7) [µM] | inhibition (Candida albicans) | IC50 [1] [µM] | IC50 (HL-60) [µM] | IC50 (RAW264.7) [µM] | inhibition (Staphylococcus aureus) | IC50 (SMMC-7721) [µM] | IC50 (SW480) [µM] | IC50 (A549) [µM]
COC[C@@]1(C[C@H]2C(=O)[C@@]34[C@H]5OC6O[C@@]3(O)[C@@H](O)[C@@H]3C(C)(C)CCC[C@]63[C@@H]4[C@@H](OC(C)=O)C[C@@H]25)C(=O)[C@]23[C@H](O)[C@@]4(O)OC5O[C@H]2[C@H]1C[C@H](OC(C)=O)[C@H]3[C@@]51CCCC(C)(C)[C@@H]41 (stereo partly drawn) | > 10 | inactive | > 10 | > 10 | 42.2 | inactive | > 10 | > 10 | > 10
COC[C@H]1C(=O)[C@@]23[C@H]4OC5O[C@@]2(O)[C@@H](O)[C@@H]2C(C)(C)CCC[C@]52[C@@H]3[C@@H](OC(C)=O)C[C@@H]14 | > 10 | inactive | > 10 | > 10 | 29.4 | inactive | > 10 | > 10 | > 10
CNC(=N)NCCC[C@H](N)C(=O)O [TILARGININE ACETATE] |  |  |  |  | 47.2 |  |  |  | 
COC(=O)CCCCCC/C=C(/C=O)C[C@H]1C(=O)[C@@]23[C@H]4OC5O[C@@]2(O)[C@@H](O)[C@@H]2C(C)(C)CCC[C@]52[C@@H]3[C@@H](OC(C)=O)C[C@@H]14 | > 10 | inactive | > 10 | > 10 |  | inactive | > 10 | > 10 | > 10
CC(=O)O[C@H]1C[C@@H]2[C@@H]3OC4O[C@@]5(O)[C@@H](O)[C@@H]6C(C)(C)CCC[C@]46[C@H]1[C@]35C(=O)[C@]21CO1 | > 10 | inactive | > 10 | > 10 |  | inactive | > 10 | > 10 | > 10
COC[C@@]1(C[C@H]2C(=O)[C@@]34[C@H]5OC6O[C@@]3(O)[C@@H](O)[C@@H]3C(C)(C)CCC[C@]63[C@@H]4CC[C@@H]25)C(=O)[C@@]23[C@H]4OC5O[C@@]2(O)[C@@H](O)[C@@H]2C(C)(C)CCC[C@]52[C@@H]3[C@@H](OC(C)=O)C[C@H]41 | > 10 | inactive | > 10 | > 10 | 11.1 | inactive | > 10 | > 10 | > 10
COC[C@@H]1C(=O)[C@@]23[C@H]4OC5O[C@@]2(O)[C@@H](O)[C@@H]2C(C)(C)CCC[C@]52[C@@H]3[C@@H](OC(C)=O)C[C@@H]14 | > 10 | inactive | > 10 | > 10 |  | inactive | > 10 | > 10 | > 10
COC[C@@H]1C(=O)[C@]23[C@H](O)[C@H]1CC[C@H]2C12CCCC(C)(C)[C@H]1C(=O)[C@]3(O)[C@@H]2O | > 10 | inactive | > 10 | > 10 |  | inactive | > 10 | > 10 | > 10
CC(=O)O[C@H]1C[C@@H]2[C@@H]3OC4O[C@@]5(O)[C@@H](O)[C@@H]6C(C)(C)CCC[C@]46[C@H]1[C@]35C(=O)[C@]21CCC2=C(O1)[C@@]13[C@H]4OC5O[C@@]1(O)[C@@H](O)[C@@H]1C(C)(C)CCC[C@]51[C@@H]3CC[C@@H]24 | > 10 | inactive | > 10 | > 10 |  | inactive | > 10 | > 10 | > 10

From ChEMBL document CHEMBL4673369, “ent-Kaurane-Based Diterpenoids, Dimers, and Meroditerpenoids from Isodon xerophilus” (J Nat Prod, 2020)
